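Five concentrations, 48 hours, 96-well plates. The concentration for full growth arrest is given as TGI.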
Key:
Test in all cases: growth of human tumour cells (NCI), 48 h
[1] = test system: UO-31 renal
[2] = test system: U251 CNS
[3] = test system: NCI-H23 lung
[4] = test system: SK-OV-3 ovarian
[5] = test system: HOP-62 NSCLC
[6] = test system: SR leukemia
[7] = test system: HT29 colon
[8] = test system: NCI/ADR-RES ovarian
[9] = test system: T-47D breast
[10] = test system: HCT-15 colon
[11] = test system: EKVX NSCLC
[12] = test system: SF-268 CNS
[13] = test system: MALME-3M melanoma
[14] = test system: IGROV1 ovarian
[15] = test system: SN12C renal
[16] = test system: HL-60(TB) leukemia
[17] = test system: A549 NSCLC
[18] = test system: COLO 205 colon
[19] = test system: CAKI-1 renal
[20] = test system: SNB-75 CNS
[21] = test system: SK-MEL-5 melanoma
[22] = test system: RPMI-8226 leukemia
[23] = test system: NCI-H460 lung
[24] = test system: SW-620 colon
[25] = test system: UACC-62 melanoma
[26] = test system: LOX IMVI melanoma
[27] = test system: K-562 leukemia
[28] = test system: MDA-MB-435
[29] = test system: M14 melanoma
[30] = test system: MDA-MB-231 breast
[31] = test system: CCRF-CEM leukemia
[32] = test system: PC-3 prostate
[33] = test system: SK-MEL-28 melanoma
[34] = test system: HS 578T breast
[35] = test system: MOLT-4 leukemia
[36] = test system: OVCAR-5 ovarian
[37] = test system: SF-295 CNS
[38] = test system: BT-549 breast
[39] = test system: ACHN renal
[40] = test system: MDA-N
[41] = test system: SF-539 CNS
[42] = test system: KM12 colon
[43] = test system: OVCAR-4 ovarian
[44] = test system: MCF7 breast
[45] = test system: OVCAR-8 ovarian
[46] = test system: DU-145 prostate
[47] = test system: UACC-257 melanoma
[48] = test system: SNB-19 CNS
[49] = test system: OVCAR-3 ovarian
[50] = test system: HCT-116 colon
[51] = test system: RXF 393 renal
[52] = test system: TK-10 renal
[53] = test system: HCC-2998 colon
[54] = test system: NCI-H226 lung
[55] = test system: NCI-H522 lung
[56] = test system: SK-MEL-2 melanoma
[57] = test system: 786-0 renal

Measured: TGI

COc1ccc(CCn2nccc2C)cc1
> 100 µM: [1] | [2] | [3] | [4] | [5] | [6] | [7] | [8] | [9] | [10] | [11] | [12] | [13] | [14] | [15] | [16] | [17] | [18] | [19] | [20] | [21] | [22] | [23] | [24] | [25] | [26] | [27] | [28] | [29] | [30] | [31] | [32] | [33] | [34] | [35] | [36] | [37] | [38] | [39] | [40] | [41] | [42] | [43] | [44] | [45] | [46] | [47] | [48] | [49] | [50] | [51] | [52]

NC1CSc2ccccc2NC1=O (configuration not stated)
> 100 µM: [1] | [53] | [2] | [3] | [4] | [5] | [6] | [7] | [8] | [9] | [10] | [11] | [12] | [13] | [14] | [15] | [16] | [17] | [54] | [18] | [19] | [20] | [55] | [21] | [22] | [23] | [24] | [25] | [26] | [27] | [28] | [29] | [30] | [31] | [32] | [33] | [34] | [35] | [36] | [37] | [38] | [39] | [40] | [41] | [42] | [43] | [44] | [45] | [56] | [46] | [47] | [48] | [49] | [50] | [51] | [52] | [57]

CN(C(=O)CC(=O)CP(=O)(c1ccccc1)c1ccccc1)c1ccccc1
> 100 µM: [1] | [53] | [2] | [3] | [4] | [5] | [6] | [7] | [8] | [9] | [10] | [11] | [12] | [14] | [15] | [16] | [17] | [54] | [18] | [19] | [20] | [55] | [21] | [22] | [23] | [24] | [25] | [27] | [28] | [29] | [30] | [31] | [32] | [33] | [34] | [35] | [37] | [38] | [39] | [40] | [41] | [42] | [43] | [44] | [45] | [46] | [47] | [48] | [49] | [50] | [51] | [52] | [57]

Source: PubChem BioAssay (NCI)
